Results reported in ChEMBL document CHEMBL4251697 (ACS Med Chem Lett, 2018).
pIC50: −log10 of the molar value. ≈ marks a conversion by molar mass, not a printed value.

Columns and labels:
[1] = Aqueous equilibrium solubility of compound in pH 6.8 phosphate buffer solution incubated overnight by shake flask based high throughput assay; assay type: physicochemical
[2] = Thermodynamic solubility of compound in pH 6.8 phosphate buffer solution incubated overnight on shaker by shake flask based HPLC analysis; assay type: physicochemical; details: read-out: Therm_solubility
[3] = biological target: Fibroblast growth factor receptor 4 (Homo sapiens, UniProt P22455)
Sequence of Fibroblast growth factor receptor 4 (P22455 whole entry): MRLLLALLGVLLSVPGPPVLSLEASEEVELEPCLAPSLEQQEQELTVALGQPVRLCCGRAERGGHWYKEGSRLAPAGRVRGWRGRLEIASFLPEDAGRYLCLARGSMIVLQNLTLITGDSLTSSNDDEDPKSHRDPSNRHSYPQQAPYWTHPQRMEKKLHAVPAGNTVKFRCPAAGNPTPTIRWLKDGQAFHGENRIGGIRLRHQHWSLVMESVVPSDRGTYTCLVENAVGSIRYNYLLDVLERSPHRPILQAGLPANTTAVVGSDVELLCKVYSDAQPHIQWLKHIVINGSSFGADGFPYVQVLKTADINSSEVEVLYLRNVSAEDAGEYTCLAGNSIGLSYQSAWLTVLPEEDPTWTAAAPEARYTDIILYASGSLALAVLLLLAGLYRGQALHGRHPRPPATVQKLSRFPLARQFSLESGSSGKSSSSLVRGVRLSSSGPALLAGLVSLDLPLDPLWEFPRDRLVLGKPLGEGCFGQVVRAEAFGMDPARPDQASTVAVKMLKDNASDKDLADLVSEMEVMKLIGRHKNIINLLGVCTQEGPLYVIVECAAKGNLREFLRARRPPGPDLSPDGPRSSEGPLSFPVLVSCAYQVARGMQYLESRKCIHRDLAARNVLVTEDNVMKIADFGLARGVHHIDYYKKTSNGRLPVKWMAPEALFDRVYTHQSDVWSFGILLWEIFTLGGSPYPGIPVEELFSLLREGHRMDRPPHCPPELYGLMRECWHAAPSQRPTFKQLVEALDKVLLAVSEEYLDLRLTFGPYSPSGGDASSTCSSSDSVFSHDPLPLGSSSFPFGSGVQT

SMILES	solubility thermodynamic [1]	solubility thermodynamic [2]	pIC50 [3]
O=Cc1ccc2c(n1)N(C(=O)Nc1ccc(C(F)(F)F)cn1)CCC2	< 4 µM	4.9 µM (≈ 1.72 µg/mL)	
O=Cc1ccc2cccc(C(=O)Nc3ccc(C(F)(F)F)cn3)c2n1	< 4 µM	< 2.9 µM	
COCCNc1cc(NC(=O)N(CCOC)c2cccc(C=O)n2)ncc1C#N	> 1000 µM		
CN(C(=O)N1CCCc2ccc(C=O)nc21)c1ccc(C(F)(F)F)cn1			< 5.00
N#Cc1ccc(NC(=O)N2CCCc3ccc(CO)nc32)nc1			< 5.00

Results, then the molecule that gave them:

solubility thermodynamic [1]	solubility thermodynamic [2]	pIC50 [3]	SMILES
300 µM (≈ 118 µg/mL)			CN(C)CCOc1cc(NC(=O)N2CCCc3ccc(C=O)nc32)ncc1C#N
173 µM (≈ 63.4 µg/mL)			CN(C)CCOc1cc(NC(=O)N2CCCc3cccnc32)ncc1C#N
